According to PubChem BioAssay (NCI):
Values joined by “and” are separate entries in the source; they are usually repeats but may differ in a detail not shown here. Equal values may be shown once.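 Grown in 96-well plates, cells were treated for 48 hours with each compound at five concentrations. Insufficient inhibition: endpoint recorded as highest concentration tested. GI50 marks 50% less growth. TGI denotes the concentration required for complete inhibition of growth.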

Test system: MDA-MB-468 breast
Experiment: NCI tumour cell line growth inhibition, 48 h

**Q.** Which results are given for `Cc1nnc(C[C@@H]2C=C(c3ccc(Cl)cc3)c3ccccc3-n3c(C)nnc32)o1`?
**A.** GI50: 0.745 µM; TGI: 22.8 µM

**Q.** Which GI50 does the source give for `Cc1cccc2c3c(sc12)C(c1ccc(F)cc1)C(C#N)=C(/N=C/c1ccc(Cl)cc1)O3` (centres undefined) here?
**A.** 0.383 µM

**Q.** What about the TGI of the same compound?
**A.** 12.6 µM

**Q.** Which GI50 does the source give for `CN(C)c1ccc(C(=S)c2ccc(N(C)C)cc2)cc1` here?
**A.** 2.05 µM

**Q.** What about the TGI of the same compound?
**A.** 8.21 µM

**Q.** With `Oc1ccc(NC(=S)Nc2ccccc2)cc1` as the compound, how does the GI50 read?
**A.** > 100 µM

**Q.** What about the TGI of the same compound?
**A.** > 100 µM

**Q.** Which results are given for `COc1ccc(-c2nn(-c3cccc(Cl)c3)cc2/C=C2\NC(=S)N(c3ccc(Cl)cc3)C2=O)cc1`?
**A.** GI50: 3.03 µM; TGI: 6.89 µM

**Q.** `CCN(C(=O)N1CCN(c2cc3c(cc2F)c(=O)c(C(=O)O)cn3C2CC2)CC1)c1nc(-c2ccccc2)cs1` was tested. Which GI50 did it give?
**A.** 2.52 µM

**Q.** What about the TGI of the same compound?
**A.** 8.82 µM

**Q.** `O=C(NNc1nc2cc(F)cc(F)c2n2cccc12)c1ccncn1` was tested. Which GI50 did it give?
**A.** > 30 µM

**Q.** And the TGI?
**A.** > 30 µM

**Q.** For `C1=N[C@]23C(=N[C@H](N=C2NCc2ccco2)[C@]24N=CNC2=N[C@H]3N=C4NCc2ccco2)N1`, which GI50 is on record?
**A.** 26.6 µM

**Q.** What about the TGI of the same compound?
**A.** > 100 µM

**Q.** `Clc1ccc(-c2cc(-c3ccccc3)nc(N3CCN(CCCNc4ccnc5cc(Cl)ccc45)CC3)n2)cc1` was tested. Which GI50 did it give?
**A.** 0.352 µM

**Q.** What about the TGI of the same compound?
**A.** 1.61 µM

**Q.** Which results are given for `Cc1c2cnccc2c(C)c2c1c1cc(O)ccc1n2C(C)C`?
**A.** GI50: 2.12 µM; TGI: 4.74 µM

**Q.** Which results are given for `O=CC(OC(=O)c1ccccc1)C(OC(=O)c1ccccc1)C(COC(c1ccccc1)(c1ccccc1)c1ccccc1)OC(=O)c1ccccc1` (centres undefined)?
**A.** GI50: 11.8 µM; TGI: 26.9 µM

**Q.** With `CN1CCN(CCCOc2cccc3nc(Nc4cc(Cl)cc(Cl)c4)ccc23)CC1` as the compound, how does the GI50 read?
**A.** 1.69 µM

**Q.** And the TGI?
**A.** 3.22 µM

**Q.** How did the GI50 turn out when `C[C@@H](O)[C@@H](C)Oc1nc(Nc2ccc(S(=N)(=O)C3CC3)cc2)ncc1C(F)(F)F` (some centres undefined) was run?
**A.** 0.023 µM

**Q.** What about the TGI of the same compound?
**A.** 0.0615 µM

**Q.** Which results are given for `CC(=O)N[C@H](C)[C@@H](O)[C@@H](C)[C@@H]1OC(=O)/C=C/C=C(C)\C=C\[C@]2(C)C[C@@H](NS(C)(=O)=O)C=C[C@@H]2/C=C(C)/C=C/[C@H]1C`?
**A.** GI50: 0.00245 µM and 0.00435 µM; TGI: 2.12 µM and 7.39 µM

**Q.** Which GI50 does the source give for `Cc1cc(F)c(C(=O)Nc2cccc(-c3nncn3C(C)C)n2)cc1-n1cnc(C2CC2)c1` here?
**A.** 7.76 µM

**Q.** What about the TGI of the same compound?
**A.** 83.3 µM

**Q.** For `COc1cc2c(Oc3ccc(NC(=O)C4(C(=O)Nc5ccc(F)cc5)CC4)cc3F)ccnc2cc1OCCCN1CCOCC1`, which GI50 is on record?
**A.** 0.92 µM and 1.05 µM

**Q.** What about the TGI of the same compound?
**A.** 2.29 µM and 3.16 µM

**Q.** What does the source list for `O=C(NC1CCN(Cc2ccccc2)CC1)c1cc(-c2cccnc2)nc2ccc(Cl)cc12`?
**A.** GI50: 4.48 µM; TGI: 57 µM

**Q.** What does the source list for `CCOC(=O)/C(=C/CC/C(C)=C/CC/C(C)=C/CCc1ccoc1)CC(=O)N1CCCCC1`?
**A.** GI50: 2.11 µM; TGI: 7.26 µM

**Q.** Which GI50 does the source give for `COc1ccccc1-n1cnc(N)c1C(=O)c1cc(OC)c(OC)c(OC)c1` here?
**A.** 1.85 µM

**Q.** And the TGI?
**A.** 6.57 µM

**Q.** What does the source list for `Cc1cccc2c(C3=C(c4cn(C)c5ccccc45)C(=O)NC3=O)cn(C)c12`?
**A.** GI50: 13.9 µM; TGI: > 25 µM

**Q.** Which results are given for `COc1ccc(C(=O)/C=C/c2sc(Cl)nc2Cl)cc1`?
**A.** GI50: 1.38 µM; TGI: 3.51 µM

**Q.** How did the GI50 turn out when `O=c1cc(-c2ccc(Cl)cc2)[nH]c2ccccc12` was run?
**A.** 18.6 µM

**Q.** And the TGI?
**A.** > 100 µM

**Q.** Which GI50 does the source give for `C[C@@H](Nc1nc(N[C@H](C)C(F)(F)F)nc(-c2cccc(Cl)n2)n1)C(F)(F)F` here?
**A.** 41.9 µM

**Q.** What about the TGI of the same compound?
**A.** > 100 µM

**Q.** How did the GI50 turn out when `O=C(COc1ccc(/C=C2\Oc3ccc4ccccc4c3C2=O)cc1)c1ccc([N+](=O)[O-])cc1` was run?
**A.** 1.07 µM

**Q.** And the TGI?
**A.** 3.05 µM

**Q.** With `C[C@@H]1CC[C@H]2[C@@H](C)C(O)O[C@@H]3O[C@]4(C)CC[C@@H]1[C@]32OO4` (some centres undefined) as the compound, how does the GI50 read?
**A.** 3.58 µM

**Q.** What about the TGI of the same compound?
**A.** 33.2 µM

**Q.** `CC/C=C\C[C@H]1C/C=C2/C(=O)C=C[C@H]2C/C=C\CCCC(=O)O1` was tested. Which GI50 did it give?
**A.** 1.56 µM

**Q.** What about the TGI of the same compound?
**A.** 7.95 µM

**Q.** `COc1ccccc1C1C2=C(COC2=O)Oc2cc3c(cc21)OCO3` (centres undefined) was tested. Which GI50 did it give?
**A.** 5.08 µM

**Q.** And the TGI?
**A.** > 100 µM

**Q.** Which GI50 does the source give for `C=CC(=O)N[C@@H]1CN(c2nc(Nc3cn(C)nc3OC)c3ncn(C)c3n2)C[C@H]1F` here?
**A.** 0.0256 µM

**Q.** And the TGI?
**A.** 0.265 µM

**Q.** With `CNC(=O)c1cc(Oc2ccc3nc(NC(=O)Nc4ccc(CN5CCOCC5)c(C(F)(F)F)c4)sc3c2)ccn1` as the compound, how does the GI50 read?
**A.** 1.45 µM

**Q.** What about the TGI of the same compound?
**A.** 4.95 µM

**Q.** Which GI50 does the source give for `NC(N)=NN=c1c(=O)c2ccccc2c1=O` here?
**A.** 16.4 µM

**Q.** And the TGI?
**A.** 30.7 µM

**Q.** With `Nc1nc(N)c2c(n1)NC(c1sc(Cl)nc1Cl)CC(c1ccccc1)=N2` (centres undefined) as the compound, how does the GI50 read?
**A.** 2.12 µM

**Q.** What about the TGI of the same compound?
**A.** 8.48 µM

**Q.** `O=C(Nc1ccc(OS(=O)(=O)c2ccc(F)cc2)cc1)C12CC3CC(CC(C3)C1)C2` was tested. Which GI50 did it give?
**A.** 1.33 µM

**Q.** What about the TGI of the same compound?
**A.** > 100 µM
